Ends that are not written are not given here.
Tested on: HIV-1 SF-2
Test: HIV-1 infectivity assay in H9 cells (p24 production and RT activity in culture supernatants)
Type: cell-based
Details: approximately 100 μm peptide
From the text: The tripeptide amides made according to EXAMPLE 1 were used in several HIV-1 infectivity assays to determine the ability of said tripeptide amides to inhibit HIV replication and/or infection. The efficiency of HIV-1 replication and status of HIV-1 infection was monitored by reverse transcriptase activity and the concentration of p24 protein in the cell supernatant. (See e.g., U.S. Pat. Nos. 5,627,035 and 6,258,932B1, herein expressly incorporated by reference in their entireties, which describe similar HIV infectivity assays and others that can be used to analyze the tripeptide amides described herein). EXAMPLE 2 describes an approach that was used to screen several tripeptide amides for their ability to inhibit HIV-1 infection.
In this example, the methods that were used to analyze the ability of various tripeptide amides to inhibit HIV-1 replication are disclosed. Approximately 10^5 of H9 cells were infected with HIV-1 SF-2 at 25 TCID50 to test the inhibitory effect of the following synthesized tripeptides: Ser-Ile-Leu-NH2, Ile-Leu-Asp-NH2, Gly-Pro-Lys-NH2, Pro-Lys-Glu-NH2, Lys-Glu-Pro-NH2, Glu-Pro-Phe-NH2, Arg-Asp-Tyr-NH2, Asp-Tyr-Val-NH2, Tyr-Lys-Thr-NH2, Arg-Ala-Glu-NH2, Ala-Glu-Gln-NH2, Glu-Gln-Ala-NH2, Val-Lys-Asn-NH2, Thr-Glu-Thr-NH2, Leu-Leu-Val-NH2, Val-Gln-Asn-NH2, Gln-Asn-Ala,-NH2, Asn-Ala-Asn-NH2, Asn-Pro-Asp-NH2, Pro-Asp-Cys-NH2, Cys-Lys-Thr-NH2, Thr-Ile-Leu-NH2, Pro-Gly-Ala-NH2, Thr-Leu-Glu-NH2, Thr-Ala-Cys-NH2, Ala-Cys-Gln-NH2, Gln-Gly-Val-NH2, Pro-Gly-His-NH2, and Arg-Val-Leu-NH2. Accordingly, the H9 cells were resuspended with or without the different peptides (approximately 100 μm) in 1 ml of RPMI 1640 medium supplemented with 10% (v/v) heat-inactivated fetal bovine serum (FBS), penicillin (100 μ/ml), and streptomycin (100 μ/ml), all available through GIBCO, and Polybrene (2 μg/ml), available through Sigma. Thereafter, viruses were added at 25 TCID50 in a volume of 20-30 μl. Cells were incubated with virus at 37° C. for 1 hr then pelleted at 170×g for 7 minutes. The cells were then washed three times in RPMI medium with or without peptides at room temperature and pelleted at 170×g for 7 minutes, as above. After the final wash, the cells were resuspended in RPMI culture medium containing the peptides in a 24-well plate (Costar corporation) and were kept at 37° C. in 5% CO2 with humidity.
Culture supernatants were collected and analyzed when the medium was changed at 4, 7, 10, and 14 days post infection. To monitor the replication of virus, reverse transcriptase (RT) activity in the supernatants was assayed using a commercially available Lenti-RT activity kit. (Cavidi Tech, Uppsala, Sweden). The amount of RT was determined with the aid of a regression line of standards.
The presence of p24 in the supernatants was determined using a commercially available HIV p24 antigen detection kit (ELISA kit from Abbott Laboratories, North Chicago, U.S.A.). In some cases, serial dilutions of the supernatants were made so as to more accurately detect p24 concentration.

## Ala-Cys-Gln-NH2
  inhibition of HIV-1 infection: effectively inhibit HIV-1 infection

## Ala-Glu-Gln-NH2
  inhibition of HIV-1 infection: effectively inhibit HIV-1 infection

## Arg-Ala-Glu-NH2
  inhibition of HIV-1 infection: effectively inhibit HIV-1 infection

## Arg-Asp-Tyr-NH2
  inhibition of HIV-1 infection: effectively inhibit HIV-1 infection

## Arg-Val-Leu-NH2
  inhibition of HIV-1 infection: effectively inhibit HIV-1 infection

## Asn-Ala-Asn-NH2
  inhibition of HIV-1 infection: effectively inhibit HIV-1 infection

## Asn-Pro-Asp-NH2
  inhibition of HIV-1 infection: effectively inhibit HIV-1 infection

## Asp-Tyr-Val-NH2
  inhibition of HIV-1 infection: effectively inhibit HIV-1 infection

## Cys-Lys-Thr-NH2
  inhibition of HIV-1 infection: effectively inhibit HIV-1 infection

## Gln-Asn-Ala-NH2
  inhibition of HIV-1 infection: effectively inhibit HIV-1 infection

## Gln-Gly-Val-NH2
  inhibition of HIV-1 infection: effectively inhibit HIV-1 infection

## Glu-Gln-Ala-NH2
  inhibition of HIV-1 infection: effectively inhibit HIV-1 infection

## Glu-Pro-Phe-NH2
  inhibition of HIV-1 infection: effectively inhibit HIV-1 infection

## Gly-Pro-Lys-NH2
  inhibition of HIV-1 infection: effectively inhibit HIV-1 infection

## Ile-Leu-Asp-NH2
  inhibition of HIV-1 infection: effectively inhibit HIV-1 infection

## Leu-Leu-Val-NH2
  inhibition of HIV-1 infection: effectively inhibit HIV-1 infection

## Lys-Glu-Pro-NH2
  inhibition of HIV-1 infection: effectively inhibit HIV-1 infection

## Pro-Asp-Cys-NH2
  inhibition of HIV-1 infection: effectively inhibit HIV-1 infection

## Pro-Gly-Ala-NH2
  inhibition of HIV-1 infection: effectively inhibit HIV-1 infection

## Pro-Gly-His-NH2
  inhibition of HIV-1 infection: effectively inhibit HIV-1 infection

## Pro-Lys-Glu-NH2
  inhibition of HIV-1 infection: effectively inhibit HIV-1 infection

## Ser-Ile-Leu-NH2
  inhibition of HIV-1 infection: effectively inhibit HIV-1 infection

## Thr-Ala-Cys-NH2
  inhibition of HIV-1 infection: effectively inhibit HIV-1 infection

## Thr-Glu-Thr-NH2
  inhibition of HIV-1 infection: effectively inhibit HIV-1 infection

## Thr-Ile-Leu-NH2
  inhibition of HIV-1 infection: effectively inhibit HIV-1 infection

## Thr-Leu-Glu-NH2
  inhibition of HIV-1 infection: effectively inhibit HIV-1 infection

## Tyr-Lys-Thr-NH2
  inhibition of HIV-1 infection: effectively inhibit HIV-1 infection

## Val-Gln-Asn-NH2
  inhibition of HIV-1 infection: effectively inhibit HIV-1 infection

## Val-Lys-Asn-NH2
  inhibition of HIV-1 infection: effectively inhibit HIV-1 infection

From patent US6593455B2, “Tripeptide amides that block viral infectivity and methods of use thereof” (Tripep AB, priority 2001, dated 2003)
